Reference: patent publication US7645776B2, “Heteroaryl substituted piperidine derivatives which are L-CPT1 inhibitors” (Hoffmann-La Roche Inc., priority 2005, dated 2010)

Target: T1, liver carnitine palmitoyl transferase 1 (L-CPT1) (Homo sapiens, UniProt P50416)
T1 construct: made in house; host or cells: Pichia pastoris strain X-33 (crude cell-free extract)
T1 sequence (P50416 1-773): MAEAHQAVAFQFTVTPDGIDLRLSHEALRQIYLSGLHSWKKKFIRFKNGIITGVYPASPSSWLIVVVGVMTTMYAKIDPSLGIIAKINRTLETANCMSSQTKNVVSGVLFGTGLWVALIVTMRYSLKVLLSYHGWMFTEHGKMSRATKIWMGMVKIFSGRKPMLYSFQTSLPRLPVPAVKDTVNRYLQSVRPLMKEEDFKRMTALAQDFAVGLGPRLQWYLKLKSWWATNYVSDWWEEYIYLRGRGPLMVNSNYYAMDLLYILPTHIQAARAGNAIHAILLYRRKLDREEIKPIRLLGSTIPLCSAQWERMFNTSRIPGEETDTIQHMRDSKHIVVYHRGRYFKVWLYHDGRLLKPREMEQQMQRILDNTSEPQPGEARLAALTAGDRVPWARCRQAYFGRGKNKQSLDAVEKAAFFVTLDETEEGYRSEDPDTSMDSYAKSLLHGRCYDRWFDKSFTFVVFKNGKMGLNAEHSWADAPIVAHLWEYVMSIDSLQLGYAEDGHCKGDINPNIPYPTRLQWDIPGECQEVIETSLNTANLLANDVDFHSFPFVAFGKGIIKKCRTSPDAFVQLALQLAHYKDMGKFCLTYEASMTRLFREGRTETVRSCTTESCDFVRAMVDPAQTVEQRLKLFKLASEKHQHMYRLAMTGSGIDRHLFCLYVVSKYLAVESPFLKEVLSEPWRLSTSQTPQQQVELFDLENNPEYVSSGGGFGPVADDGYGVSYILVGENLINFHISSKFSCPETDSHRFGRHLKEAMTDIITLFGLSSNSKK
Test: L-CPT1 inhibition, spectrophotometric DTNB (Ellman's reagent) CPT activity assay
Assay type: biochemical
Protocol: The following tests were carried out in order to determine the activity of the compounds of the present invention. Background information on the performed assays can be found in: Jackson et al., 1999, Biochem. J. 341, 483-489 and Jackson et al., 2000, J. Biol. Chem. 275, 19560-19566.
Human liver and muscle CPT1 cDNAs and rat CPT2 cDNA were subcloned in pGAPZB or pGAPZA, respectively. These plasmids were used to transform P. pastoris strain X-33 via electroporation after the preparation of electrocompetent cells. High copy number clones were selected where necessary using 0.5 or 1 mg/ml Zeocin. Cultures for activity measurements were induced for 16 h in YPD medium (1% yeast extract, 2% peptone, 2% glucose). Crude cell extracts were prepared by disrupting the cells with glass beads or French Press, depending on fermenter sizes. After centrifugation, the cell-free extracts were resuspended in cell breaking buffer (50 mM Tris, pH7.4, 100 mM KCl, 1 mM EDTA) in the presence of a protease inhibitor cocktail, before aliquoting and freezing at −20° C.
CPT activity was measured using a spectrophotometric assay using 5,5′-dithio-bis-(2-nitrobenzoic acid) (DTNB) also called Ellman's reagent. The HS-CoA released on the formation of acylcarnitine from carnitine (500 μM) and palmitoyl-CoA (80 μM) reduced DTNB (300 μM) forming 5-mercapto-(2-nitrobenzoic acid) which absorbed at 410 nm with a molar coefficient extinction of 13600 M^−1.cm^−1. The assay buffer contained 120 mM KCl, 25 mM Tris, pH 7.4, 1 mM EDTA. This assay was used for the identification of selective inhibitors of the liver CPT1 isoform versus the muscle CPT1 and CPT2 isoforms.

Question: `COc1ccc(-c2noc([C@H]3CCCCN3C(=O)COc3ccccc3)n2)cc1` [Example 1, (R)-1-{2-[3-(4-Methoxy-phenyl)-[1,2,4]oxadiazol-5-yl]-piperidin-1-yl}-2-phenoxy-ethanone] was tested. Which IC50 did it give?
Answer: 66 nM

Question: How did the IC50 turn out when `O=C(COc1ccccc1)N1CCCC[C@@H]1c1nc(-c2ccc(F)cc2)no1` [Example 10, (R)-1-{2-[3-(4-Fluoro-phenyl)-[1,2,4]oxadiazol-5-yl]-piperidin-1-yl}-2-phenoxy-ethanone] was run?
Answer: 260 nM

Question: How did the IC50 turn out when `COc1ccc(-c2n[nH]c([C@H]3CN(C)CCN3C(=O)COc3ccccc3)n2)cc1` [Example 172, (R)-1-{2-[5-(4-Methoxy-phenyl)-2H-[1,2,4]triazol-3-yl]-4-methyl-piperazin-1-yl}-2-phenoxy-ethanone] was run?
Answer: 242 nM
